# Results reported in patent US6632831B2, “Branched chain amino acid-dependent aminotransferase inhibitors and their use in the treatment of neurodegenerative diseases” (Pfizer Inc., priority 2001, dated 2003).
# pIC50: −log10 of the molar value. Several values for one entry are separate records, joined by “and”; a condition that tells them apart may be missing. Equal values may be shown once.
# Target: T1, human Branched Chain Amino Acid Aminotransferase cytosolic form (hBCATc) (Homo sapiens, UniProt P54687)
# T1 construct: inferred from purification on a Ni-charged chelating column with imidazole elution; made in house; host or cells: E. coli BL21(DE3)
# T1 sequence (P54687 1-386): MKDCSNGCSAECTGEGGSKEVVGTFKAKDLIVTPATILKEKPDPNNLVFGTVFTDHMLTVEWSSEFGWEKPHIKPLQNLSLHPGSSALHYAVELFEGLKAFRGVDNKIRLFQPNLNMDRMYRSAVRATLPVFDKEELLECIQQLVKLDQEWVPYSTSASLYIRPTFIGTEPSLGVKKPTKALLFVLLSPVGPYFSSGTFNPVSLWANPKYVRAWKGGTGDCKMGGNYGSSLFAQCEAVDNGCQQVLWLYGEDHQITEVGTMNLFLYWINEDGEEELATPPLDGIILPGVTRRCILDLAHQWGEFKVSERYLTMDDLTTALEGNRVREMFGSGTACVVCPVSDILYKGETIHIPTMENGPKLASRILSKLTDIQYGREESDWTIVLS
# Assay: In vitro coupled enzyme assay, hBCATc
# Assay type: biochemical
# Details: 37° C.; for pIC50: 25 mM phosphate buffer pH 7.8, coupled glutamate dehydrogenase assay, read-out: hBCATc I50; for inhibition at 20 µM: read-out: hBCATc Inhibit % @ 20 μM
# Experimental: In vitro enzyme assay—human Branched Chain Amino Acid Aminotransferase cytosolic form (hBCATc) and mitochondrial form (hBCATm) were assayed at 37° C. in 25 mM phosphate buffer pH 7.8. In addition, 2 mM DTT and 12.5 mM EDTA were added to the assay mixture. A coupling enzyme assay was used to monitor the production of glutamate. The formation of NADH from NAD+at […] was followed on a 96-well plate Molecular Devices plate reader. The following components were used in this coupled assay: 4 mM ADP, 1 mM NAD+, 750 μM L-Leucine, 500 μM (α-ketoglutarate, 10 μM pyridoxal phosphate, 1 unit glutamate dehydrogenase, and 1.25 μg of the appropriate BCAT enzyme. Inhibitions by compounds were assayed by adding various concentrations to this coupled assay procedure as a DMSO stock up to a 5% v/v DMSO/buffer ratio. Data is shown in Table 1.
# Enzyme Preparation—humanBCATc was expressed in BL21(DE3) cells. A growing culture of cells was induced with 1 mM IPTG at room temperature overnight. These cells were harvested by centrifugation at 10,000 g for 20 minutes. The supernatant was discarded, and the cells were stored at −80° C. until needed. The protein was purified by the following method. The cell paste was resuspended in extraction buffer (0.1 M phosphate, pH 8.0, with 0.01 M Tris-HCL and 5 mM TCEP and then lysed on a French Press at 1000 psi. The lysate was centrifuged at 10,000 g for 15 minutes, and the pellet was discarded. The supernatant was loaded onto a Hitrap Chelating column previously charged with 0.1 M NiSO4 and washed with 3 to 4 column volumes of extraction buffer. The column was then washed with 0.01 Tris, pH 7.5, 10% glycerol, 150 mM NaCl, 5 mM TCEP for two column volumes. The column was then further washed with two column volumes of 0.1 M phosphate, pH 6.0, 0.01 M Tris, 10% glycerol and 750 mM NaCl. Finally, the column was washed with two column volumes of the same buffer plus 50 mM imidazole. The BCAT enzyme was then eluted with the same buffer but with 350 mM imidazole. The eluant was then dialyzed overnight against 10 mM phosphate buffer pH 8.0, 10% glycerol, and 5 mM TCEP. The dialyzed protein was then loaded onto a Q-sepharose column and eluted using a salt gradient. Active fractions were collected and further purified on a Superose-12 column to yield pure BCAT protein.
# [1] = @ 20 μM compound, pH 7.8 coupled assay
pIC50,Compound,other results
4.12,"CNCCCCCCCCN(C)C(=O)/C=C1\SC(Nc2c(Cl)cccc2Cl)=NC1=O [Example 34, 2-[2-(2,6-Dichloro-phenylamino)-4-oxo-4H-thiazol-5-ylidene]-N-methyl-N-(8-methylamino-octyl)-acetamide]",–
4.95,"CCCN(CC1CC1)C(=O)/C=C1\SC(Nc2c(Cl)cccc2Cl)=NC1=O [Example 31, N-Cyclopropylmethyl-2-[2-(2,6-dichloro-phenylamino)-4-oxo-4H-thiazol-5-ylidene]-N-propyl-acetamide]",–
4.86,"O=C1N=C(Nc2c(Cl)cccc2Cl)S/C1=C\C(=O)N1CCCC1 [Example 21, 2-(2,6-Dichloro-phenylamino)-5-(2-oxo-2-pyrrolidin-1-yl-ethylidene)-thiazol-4-one]",–
4.25,"O=C(/C=C1\SC(Nc2c(Cl)cccc2Cl)=NC1=O)NCCOCCO [Example 26, 2-[2-(2,6-Dichloro-phenylamino)-4-oxo-4H-thiazol-5-ylidene]-N-[2-(2-hydroxy-ethoxy)-ethyl]-acetamide]",–
4.65,"O=C(/C=C1\SC(Nc2c(Cl)cccc2Cl)=NC1=O)NC1CCCCC1 [Example 22, N-Cyclohexyl-2-[2-(2,6-dichloro-phenylamino)-4-oxo-4H-thiazol-5-ylidene]-acetamide]",–
4.40,"COC(CNC(=O)/C=C1\SC(Nc2c(Cl)cccc2Cl)=NC1=O)OC [Example 23, 2-[2-(2,6-Dichloro-phenylamino)-4-oxo-4H-thiazol-5-ylidene]-N-(2,2-dimethoxy-ethyl)-acetamide]",–
4.05,"CN1CCC(N(C)C(=O)/C=C2\SC(Nc3c(Cl)cccc3Cl)=NC2=O)C1 (stereo not shown) [Example 32, 2-[2-(2,6-Dichloro-phenylamino)-4-oxo-4H-thiazol-5-ylidene]-N-methyl-N-(1-methyl-pyrrolidin-3-yl)-acetamide]",–
4.39,"O=C(/C=C1\SC(Nc2c(Cl)cccc2Cl)=NC1=O)NCCOc1ccccc1 [Example 33, 2-[2-(2,6-Dichloro-phenylamino)-4-oxo-4H-thiazol-5-ylidene]-N-(2-phenoxy-ethyl)-acetamide]",–
4.51,"C=C(C)CNC(=O)/C=C1\SC(Nc2c(Cl)cccc2Cl)=NC1=O [Example 29, 2-[2-(2,6-Dichloro-phenylamino)-4-oxo-4H-thiazol-5-ylidene]-N-(2-methyl-allyl)-acetamide]",–
4.18,"CC(C)NC(=O)/C=C1\SC(Nc2c(Cl)cccc2Cl)=NC1=O [Example 20, 2-[2-(2,6-Dichloro-phenylamino)-4-oxo-4H-thiazol-5-ylidene]-N-isopropyl-acetamide]",–
5.05,"CC1CC(C)CN(C(=O)/C=C2\SC(Nc3c(Cl)cccc3Cl)=NC2=O)C1 (stereo not shown) [Example 24, 2-(2,6-Dichloro-phenylamino)-5-[2-(3,5-dimethyl-piperidin-1-yl)-2-oxo-ethylidene)-thiazol-4-one]",–
4.78,"O=C(/C=C1\SC(Nc2c(Cl)cccc2Cl)=NC1=O)NC1CCCC1 [Example 30, N-Cyclopentyl-2-[2-(2,6-dichloro-phenylamino)-4-oxo-4H-thiazol-5-ylidene]-acetamide]",–
4.19,"CN(C)C1CCN(C(=O)/C=C2\SC(Nc3c(Cl)cccc3Cl)=NC2=O)C1 (stereo not shown) [Example 25, 2-(2,6-Dichloro-phenylamino)-5-[2-(3-dimethylamino-pyrrolidin-1-yl)-2-oxo-ethylidene)-thiazol-4-one]",–
4.39,"CSCCCNC(=O)/C=C1\SC(Nc2c(Cl)cccc2Cl)=NC1=O [Example 27, 2-[2-(2,6-Dichloro-phenylamino)-4-oxo-4H-thiazol-5-ylidene]-N-(3-methylsulfanyl-propyl)-acetamide]",–

# More lines, now with the values behind:
Compound,pIC50,other results
"CC(C)(C)OC(=O)/C=C1\SC(Nc2c(Cl)cccc2Cl)=NC1=O [Example 3, [2-(2,6-Dichloro-phenylamino)-4-oxo-4H-thiazol-5-ylidene]-acetic Acid Tert-butyl Ester]",4.16 and 4.43,–
"COC(=O)/C=C1\SC(Nc2ccccc2C)=NC1=O [Example 4, [2-(2-Methyl-phenylamino)-4-oxo-4H-thiazol-5-ylidene]-acetic Acid Methyl Ester]",4.36 and 4.53,–
"CC(C)CCC(C)NC(=O)/C=C1\SC(Nc2c(Cl)cccc2Cl)=NC1=O (stereo not shown) [Example 37, 2-[2-(2,6-Dichloro-phenylamino)-4-oxo-4H-thiazol-5-ylidene]-N-(1,4-dimethyl-pentyl)-acetamide]",–,inhibition at 20 µM [1]: 34%
"CCN1CCN(C(=O)/C=C2\SC(Nc3c(Cl)cccc3Cl)=NC2=O)CC1 [Example 18, 2-(2,6-Dichloro-phenylamino)-5-[2-(4-ethyl-piperazin-1-yl)-2-oxo-ethylidene)-thiazol-4-one]",4.19,–
"O=C(/C=C1\SC(Nc2c(Cl)cccc2Cl)=NC1=O)NC1CCCCCC1 [Example 39, N-Cycloheptyl-2-[2-(2,6-dichloro-phenylamino)-4-oxo-4H-thiazol-5-ylidene]-acetamide]",–,inhibition at 20 µM [1]: 39%
"CNC(=O)/C=C1\SC(Nc2c(Cl)cccc2Cl)=NC1=O [Example 6, [2-(2,6-Dichloro-phenylamino)-4-oxo-4H-thiazol-5-ylidene]-N-methyl-acetamide]",5.51 and 5.72,–
"CONC(=O)/C=C1\SC(Nc2c(Cl)cccc2Cl)=NC1=O [Example 10, [2-(2,6-Dichloro-phenylamino)-4-oxo-4H-thiazol-5-ylidene]-N-methoxy-acetamide]",4.50,–
"CCCNC(=O)/C=C1\SC(Nc2c(Cl)cccc2Cl)=NC1=O [Example 8, [2-(2,6-Dichloro-phenylamino)-4-oxo-4H-thiazol-5-ylidene]-N-propyl-acetamide]",4.45 and 4.76,–
"O=C(/C=C1\SC(Nc2c(Cl)cccc2Cl)=NC1=O)NCc1ccc(Cl)cc1 [Example 35, N-(4-Chloro-benzyl)-2-[2-(2,6-dichloro-phenylamino)-4-oxo-4H-thiazol-5-ylidene]-acetamide]",–,inhibition at 20 µM [1]: 130%
"O=C1N=C(Nc2c(Cl)cccc2Cl)S/C1=C\C(=O)N1CCCCC1 [Example 17, 2-(2,6-Dichloro-phenylamino)-5-(2-oxo-2-piperidine-1-yl-ethylidene)-thiazol-4-one]",4.89,–
"COCCNC(=O)/C=C1\SC(Nc2c(Cl)cccc2Cl)=NC1=O [Example 16, 2-[2-(2,6-Dichloro-phenylamino)-4-oxo-4H-thiazol-5-ylidene]-N-(2-methoxy-ethyl)-acetamide]",4.08,–
"CCOC(=O)/C=C1\SC(Nc2c(Cl)cccc2Cl)=NC1=O [Example 2, [2-(2,6-Dichloro-phenylamino)-4-oxo-4H-thiazol-5-ylidene]-acetic Acid Ethyl Ester]",4.28,–
"O=C(/C=C1\SC(Nc2c(Cl)cccc2Cl)=NC1=O)NCCCN1CCCC1 [Example 19, 2-[2-(2,6-Dichloro-phenylamino)-4-oxo-4H-thiazol-5-ylidene]-N-(3-pyrrolidin-1-yl-propyl)-acetamide]",4.26,–
"CCNC(=O)/C=C1\SC(Nc2c(Cl)cccc2Cl)=NC1=O [Example 7, [2-(2,6-Dichloro-phenylamino)-4-oxo-4H-thiazol-5-ylidene]-N-ethyl-acetamide]",4.88 and 5.50,–
"COC(=O)/C=C1\SC(Nc2c(Cl)cccc2Cl)=NC1=O [Example 1, [2-(2,6-Dichloro-phenylamino)-4-oxo-4H-thiazol-5-ylidene]-acetic Acid Methyl Ester]",5.39,–
"N-(1-Benzyl-pyrrolidin-3-yl)-2-[2-(2,6-dichloro-phenylamino)-4-oxo-4H-thiazol-5-ylidene]-N-methyl-acetamide [Example 36]",–,hBCATc Inhibit % @ 20 μM [1]: Inhibit 29% @ 20 μM
"CC(C)CC(C)NC(=O)/C=C1\SC(Nc2c(Cl)cccc2Cl)=NC1=O (stereo not shown) [Example 38, 2-[2-(2,6-Dichloro-phenylamino)-4-oxo-4H-thiazol-5-ylidene]-N-(1 ,3-dimethyl-butyl)-acetamide]",–,inhibition at 20 µM [1]: 33%
